Experimental data as given in patent US8614327B2 (Vertex Pharmaceuticals Incorporated, priority 2004, dated 2013).

Target: T1, ΔF508-CFTR (Homo sapiens, UniProt P13569, DEL508-508)
T1 construct: expressed in transfected cells
Assay: Membrane potential optical (FRET/VIPR) assay, identification of potentiator compounds
Assay type: cell-based
Conditions: Table 3, assay not given; for % Activity: relative efficacy
Description: I) Membrane Potential Optical Methods for Assaying ΔF508-CFTR Modulation Properties of Compounds The optical membrane potential assay utilized voltage-sensitive FRET sensors described by Gonzalez and Tsien (See, Gonzalez, J. E. and R. Y. Tsien (1995) “Voltage sensing by fluorescence resonance energy transfer in single cells” Biophys J 69(4): 1272-80, and Gonzalez, J. E. and R. Y. Tsien (1997) “Improved indicators of cell membrane potential that use fluorescence resonance energy transfer” Chem Biol 4(4): 269-77) in combination with instrumentation for measuring fluorescence changes such as the Voltage/Ion Probe Reader (VIPR) (See, […]. Oades, et al. (1999) “Cell-based assays and instrumentation for screening ion-channel targets” Drug Discov Today 4(9): 431-439). These voltage sensitive assays are based on the change in fluorescence resonant energy transfer (FRET) between the membrane-soluble, voltage-sensitive dye, DiSBAC2(3), and a fluorescent phospholipid, CC2-DMPE, which is attached to the outer leaflet of the plasma membrane and acts as a FRET donor. Changes in membrane potential (Vm) cause the negatively charged DiSBAC2(3) to redistribute across the plasma membrane and the amount of energy transfer from CC2-DMPE changes accordingly. The changes in fluorescence emission were monitored using VIPR which is an integrated liquid handler and fluorescent detector designed to conduct cell-based screens in 96- or 384-well microtiter plates. To identify potentiators of ΔF508-CFTR, a double-addition HTS assay format was developed. During the first addition, a Cl^--free medium with or without test compound was added to each well. […] (in mM) NaCl 160, KCl 4.5, CaCl2 2, MgCl2 1, HEPES 10, pH 7.4 with NaOH. • Chloride-free bath solution: Chloride salts in Bath Solution #1 are substituted with gluconate salts. • CC2-DMPE: Prepared as a 10 mM stock solution in DMSO and stored at -20° C. • DiSBAC2(3): Prepared as a 10 mM stock in DMSO and stored at -20° C. NIH3T3 mouse fibroblasts stably expressing ΔF508-CFTR are used for optical measurements of membrane potential. […] For all optical assays, the cells were seeded at 30,000/well in 384-well matrigel-coated plates and cultured for 2 hrs at 37° C. before culturing at 27° C. for 24 hrs. for the potentiator assay.

T1 sequence (P13569 with tags, fused parts or gaps DEL508-508): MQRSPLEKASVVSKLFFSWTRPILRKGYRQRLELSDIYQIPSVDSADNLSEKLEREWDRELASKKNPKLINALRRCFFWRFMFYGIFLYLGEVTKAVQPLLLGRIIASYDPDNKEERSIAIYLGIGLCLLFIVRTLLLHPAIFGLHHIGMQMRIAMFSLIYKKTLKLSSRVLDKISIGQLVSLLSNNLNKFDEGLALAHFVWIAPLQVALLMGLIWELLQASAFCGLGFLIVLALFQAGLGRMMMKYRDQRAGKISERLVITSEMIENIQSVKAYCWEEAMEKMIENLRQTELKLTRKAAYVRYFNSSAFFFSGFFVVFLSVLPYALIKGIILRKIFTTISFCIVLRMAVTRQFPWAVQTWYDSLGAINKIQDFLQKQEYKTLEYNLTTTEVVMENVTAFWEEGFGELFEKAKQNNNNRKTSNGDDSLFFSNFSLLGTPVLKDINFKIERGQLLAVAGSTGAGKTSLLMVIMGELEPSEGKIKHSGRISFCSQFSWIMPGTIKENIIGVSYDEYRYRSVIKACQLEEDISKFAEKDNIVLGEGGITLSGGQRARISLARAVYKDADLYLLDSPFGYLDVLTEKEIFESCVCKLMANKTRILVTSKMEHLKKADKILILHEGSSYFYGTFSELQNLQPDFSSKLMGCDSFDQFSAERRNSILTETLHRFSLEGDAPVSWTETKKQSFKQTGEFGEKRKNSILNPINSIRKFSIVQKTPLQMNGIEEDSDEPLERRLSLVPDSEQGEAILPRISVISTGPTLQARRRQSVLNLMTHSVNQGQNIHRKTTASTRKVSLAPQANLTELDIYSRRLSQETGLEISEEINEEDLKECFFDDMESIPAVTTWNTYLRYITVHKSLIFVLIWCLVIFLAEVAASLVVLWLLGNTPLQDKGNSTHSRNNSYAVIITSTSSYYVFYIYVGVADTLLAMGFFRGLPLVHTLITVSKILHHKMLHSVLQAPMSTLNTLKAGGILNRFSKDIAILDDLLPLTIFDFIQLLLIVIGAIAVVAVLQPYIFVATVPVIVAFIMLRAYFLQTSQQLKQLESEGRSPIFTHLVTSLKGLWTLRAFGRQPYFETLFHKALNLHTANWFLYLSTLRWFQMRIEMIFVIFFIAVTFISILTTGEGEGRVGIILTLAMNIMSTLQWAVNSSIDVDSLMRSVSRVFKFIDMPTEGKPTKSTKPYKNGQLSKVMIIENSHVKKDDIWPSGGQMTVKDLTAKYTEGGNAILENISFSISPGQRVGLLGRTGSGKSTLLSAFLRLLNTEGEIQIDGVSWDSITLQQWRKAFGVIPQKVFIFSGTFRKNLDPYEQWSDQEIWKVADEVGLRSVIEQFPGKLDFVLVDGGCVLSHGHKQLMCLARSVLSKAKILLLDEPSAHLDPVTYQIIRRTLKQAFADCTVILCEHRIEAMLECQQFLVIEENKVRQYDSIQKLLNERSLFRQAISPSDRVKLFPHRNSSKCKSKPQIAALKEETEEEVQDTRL

Row | EC50 [µM] | % Activity | Structure (SMILES)
1 | 10 to 25 | ++ (between 25% to 100%) | O=C(Nc1ccc2c(c1)OC(F)(F)O2)c1c[nH]c2ccccc2c1=O [Compound 66, N-(2,2-difluorobenzo[1,3]dioxol-5-yl)-4-oxo-1H-quinoline-3-carboxamide]
2 | < 10 | ++ (between 25% to 100%) | CCc1ccc2ncc(C(=O)Nc3ccc4cc[nH]c4c3)c(O)c2c1 [Compound 67, 6-ethyl-4-hydroxy-N-(1H-indol-6-yl)quinoline-3-carboxamide]
3 | – | ++ (between 25% to 100%) | COC(=O)c1cccc(-c2ccccc2NC(=O)c2c[nH]c3ccccc3c2=O)c1 [Compound 68, 3-[2-[(4-oxo-1H-quinolin-3-yl)carbonylamino]phenyl]benzoic acid methyl ester]
4 | < 10 | ++ (between 25% to 100%) | CC(C)c1ccc(NC(=O)c2c[nH]c3ccccc3c2=O)cc1N [Compound 69, N-(3-amino-4-isopropyl-phenyl)-4-oxo-1H-quinoline-3-carboxamide]
5 | – | ++ (between 25% to 100%) | O=C(Nc1ccccc1-c1ccncc1)c1c[nH]c2ccccc2c1=O [Compound 70, 4-oxo-N-[2-(4-pyridyl)phenyl]-1H-quinoline-3-carboxamide]
6 | < 10 | ++ (between 25% to 100%) | CC(C)OC(=O)c1cccc(-c2ccccc2NC(=O)c2c[nH]c3ccccc3c2=O)c1 [Compound 71, 3-[2-[(4-oxo-1H-quinolin-3-yl)carbonylamino]phenyl]benzoic acid isopropyl ester]
7 | < 10 | ++ (between 25% to 100%) | CCc1ccccc1NC(=O)c1c[nH]c2ccccc2c1=O [Compound 72, N-(2-ethylphenyl)-4-oxo-1H-quinoline-3-carboxamide]
8 | 25 to 60 | + (<25%) | O=C(Nc1ccc2nc(-c3ccccc3)[nH]c2c1)c1c[nH]c2ccccc2c1=O [Compound 73, 4-oxo-N-(2-phenyl-3H-benzoimidazol-5-yl)-1H-quinoline-3-carboxamide]
9 | 25 to 60 | + (<25%) | O=C(Nc1ccc(C(F)(F)F)cn1)c1c[nH]c2ccccc2c1=O [Compound 74, 4-oxo-N-[5-(trifluoromethyl)-2-pyridyl]-1H-quinoline-3-carboxamide]
10 | 25 to 60 | + (<25%) | O=C(Nc1cnc2ccccc2c1)c1c[nH]c2ccccc2c1=O [Compound 75, 4-oxo-N-(3-quinolyl)-1H-quinoline-3-carboxamide]
11 | < 10 | ++ (between 25% to 100%) | O=C(Nc1ccccc1-c1ccc(F)c(F)c1)c1c[nH]c2ccccc2c1=O [Compound 76, N-[2-(3,4-difluorophenyl)phenyl]-4-oxo-1H-quinoline-3-carboxamide]
12 | < 10 | ++ (between 25% to 100%) | O=C(Nc1cc2[nH]ccc2cc1F)c1c[nH]c2ccccc2c1=O [Compound 77, N-(5-fluoro-1H-indol-6-yl)-4-oxo-1H-quinoline-3-carboxamide]
13 | 25 to 60 | + (<25%) | NS(=O)(=O)c1ccccc1NC(=O)c1c[nH]c2ccccc2c1=O [Compound 78, 4-oxo-N-(2-sulfamoylphenyl)-1H-quinoline-3-carboxamide]
14 | – | ++ (between 25% to 100%) | Cc1cc(-c2ccccc2NC(=O)c2c[nH]c3ccccc3c2=O)ccc1F [Compound 79, N-[2-(4-fluoro-3-methyl-phenyl)phenyl]-4-oxo-1H-quinoline-3-carboxamide]
15 | < 10 | ++ (between 25% to 100%) | COc1ccccc1NC(=O)c1c[nH]c2ccccc2c1=O [Compound 80, N-(2-methoxyphenyl)-4-oxo-1H-quinoline-3-carboxamide]
16 | 25 to 60 | + (<25%) | CCC(=O)Nc1cccc(NC(=O)c2c[nH]c3ccccc3c2=O)c1 [Compound 81, 4-oxo-N-(3-propionylaminophenyl)-1H-quinoline-3-carboxamide]
17 | < 10 | ++ (between 25% to 100%) | CCN(CC)c1ccc(NC(=O)c2c[nH]c3ccccc3c2=O)c(C)c1 [Compound 82, N-(4-diethylamino-2-methyl-phenyl)-4-oxo-1H-quinoline-3-carboxamide]

Row | EC50 [µM] | % Activity | Structure (SMILES)
18 | < 10 | ++ (between 25% to 100%) | N#Cc1cccc(-c2ccccc2NC(=O)c2c[nH]c3ccccc3c2=O)c1 [Compound 83, N-[2-(3-cyanophenyl)phenyl]-4-oxo-1H-quinoline-3-carboxamide]
19 | 25 to 60 | + (<25%) | Cc1ccnc(NC(=O)c2c[nH]c3ccccc3c2=O)c1 [Compound 84, N-(4-methyl-2-pyridyl)-4-oxo-1H-quinoline-3-carboxamide]
20 | < 10 | ++ (between 25% to 100%) | O=C(Nc1ccccc1-c1ccc(Cl)c(Cl)c1)c1c[nH]c2ccccc2c1=O [Compound 85, N-[2-(3,4-dichlorophenyl)phenyl]-4-oxo-1H-quinoline-3-carboxamide]
21 | 10 to 25 | ++ (between 25% to 100%) | NCc1ccccc1-c1ccc(NC(=O)c2c[nH]c3ccccc3c2=O)cc1 [Compound 86, N-[4-[2-(aminomethyl)phenyl]phenyl]-4-oxo-1H-quinoline-3-carboxamide]
22 | < 10 | ++ (between 25% to 100%) | O=C(Nc1cccc(Oc2ccccc2)c1)c1c[nH]c2ccccc2c1=O [Compound 87, 4-oxo-N-(3-phenoxyphenyl)-1H-quinoline-3-carboxamide]
23 | 25 to 60 | + (<25%) | Cc1ccc(C#N)c(NC(=O)c2c[nH]c3ccccc3c2=O)c1 [Compound 89, N-(2-cyano-5-methyl-phenyl)-4-oxo-1H-quinoline-3-carboxamide]
24 | < 10 | ++ (between 25% to 100%) | CC(C)(C)c1ccccc1NC(=O)c1c[nH]c2ccccc2c1=O [Compound 90, 4-oxo-N-(2-tert-butylphenyl)-1H-quinoline-3-carboxamide]
25 | < 10 | ++ (between 25% to 100%) | CCc1ccc(Cl)c(CC)c1NC(=O)c1c[nH]c2ccccc2c1=O [Compound 91, N-(3-chloro-2,6-diethyl-phenyl)-4-oxo-1H-quinoline-3-carboxamide]
26 | < 10 | ++ (between 25% to 100%) | CC1(c2cc(F)c(NC(=O)c3c[nH]c4ccccc4c3=O)cc2O)CCCCC1 [Compound 92, N-[2-fluoro-5-hydroxy-4-(1-methylcyclohexyl)-phenyl]-4-oxo-1H-quinoline-3-carboxamide]
27 | < 10 | ++ (between 25% to 100%) | N#Cc1ccc(-c2ccccc2NC(=O)c2c[nH]c3ccccc3c2=O)s1 [Compound 93, N-[2-(5-cyano-2-thienyl)phenyl]-4-oxo-1H-quinoline-3-carboxamide]
28 | < 10 | ++ (between 25% to 100%) | Cc1ccc(N)cc1NC(=O)c1c[nH]c2ccccc2c1=O [Compound 94, N-(5-Amino-2-methyl-phenyl)-4-oxo-1H-quinoline-3-carboxamide]
29 | 10 to 25 | ++ (between 25% to 100%) | N#Cc1ccccc1NC(=O)c1c[nH]c2ccccc2c1=O [Compound 95, N-(2-cyanophenyl)-4-oxo-1H-quinoline-3-carboxamide]
30 | < 10 | ++ (between 25% to 100%) | N#CCc1c[nH]c2cc(NC(=O)c3c[nH]c4ccccc4c3=O)ccc12 [Compound 96, N-[3-(cyanomethyl)-1H-indol-6-yl]-4-oxo-1H-quinoline-3-carboxamide]
31 | < 10 | ++ (between 25% to 100%) | COc1ncc(-c2ccccc2NC(=O)c2c[nH]c3ccccc3c2=O)c(OC)n1 [Compound 97, N-[2-(2,4-dimethoxypyrimidin-5-yl)phenyl]-4-oxo-1H-quinoline-3-carboxamide]
32 | < 10 | ++ (between 25% to 100%) | CCCc1ccc(N(C)C)cc1NC(=O)c1c[nH]c2ccccc2c1=O [Compound 98, N-(5-dimethylamino-2-propyl-phenyl)-4-oxo-1H-quinoline-3-carboxamide]
33 | < 10 | ++ (between 25% to 100%) | CCCCCc1ccc(NC(=O)c2c[nH]c3ccccc3c2=O)cc1 [Compound 99, 4-oxo-N-(4-pentylphenyl)-1H-quinoline-3-carboxamide]
34 | 25 to 60 | + (<25%) | O=C(Nc1cccc2[nH]ccc12)c1c[nH]c2ccccc2c1=O [Compound 100, N-(1H-indol-4-yl)-4-oxo-1H-quinoline-3-carboxamide]
